Experiment [1] concerns SH-SY5Y. In words: Induction of amyloid beta (1 to 42) secretion in human SH-SY5Y cells incubated for overnight by ELISA. It is filed as functional, cell-based. (In general: An ELISA detects its analyte on a solid surface through an enzyme-linked reagent.)
For experiment [2], the system named is H4. As to the kind of experiment: Induction of amyloid beta (1 to 42) secretion in human H4 cells overexpressing APP incubated for overnight by ELISA. It is filed as functional, cell-based.
Experiment [3] deals with H4. As to the kind of experiment: Induction of amyloid beta (1 to 40) secretion in human H4 cells overexpressing APP incubated for overnight by ELISA. Type of experiment: functional, cell-based.
The next experiment is filed under the species Homo sapiens. In words: Inhibition of monoamine oxidase (unknown origin).
Experiment [4] deals with SH-SY5Y. In words: Induction of amyloid beta (1 to 40) secretion in human SH-SY5Y cells incubated for overnight by ELISA. It is filed as functional, cell-based.

Active and inactive are the calls of the source. No cut-off for these calls is given here.

As to `CO/C(=C\c1cc(Cl)c(O)c(Cl)c1)C(=O)O`, the result in the experiment on SH-SY5Y [1] and in the experiment on SH-SY5Y [4] was inactive. In addition, the Activity entry with H4 [2] and in the experiment with H4 [3] was “Dose-dependent effect” throughout. For the same compound, the inhibition entry in the experiment filed under Homo sapiens is “inactive”.
On to `CO/C(=C\c1ccc(O)c(Cl)c1)C(=O)O`, for which the result in the experiment with SH-SY5Y [1] and in the experiment on SH-SY5Y [4] was inactive. The Activity result in the experiment with H4 [2] and in the experiment with H4 [3] was “Dose-dependent effect” in each case. Also, the inhibition entry in the experiment filed under Homo sapiens was “inactive”.

For the origin of these results see ChEMBL document CHEMBL4619732, “Two new secondary metabolites, saccharochlorines A and B, from a marine bacterium Saccharomonospora sp. KCTC-19160” (Bioorg Med Chem Lett, 2020).
